In patent US8940742B2, “Heterocyclic compounds and uses thereof” (Infinity Pharmaceuticals, Inc., priority 2012, dated 2015):

Legend:
NZB/W F1 mice = conditions: NZB/W model, profilactic and therapeutic; cited from earlier work
PI3K α = molecular target: T1, PI3K α (Homo sapiens, UniProt P42336); experiment: PI3-Kinase Promega ADP-Glo Max assay; assay type: biochemical; conditions: 20 nM kinase, 3 mM ATP, 500 uM diC8-PtdInsP
T1 construct: purchased Millipore
In short: (§1)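 Human class I PI3K (20 nM α or δ, 40 nM β) pre-incubated 15 min with compound in HEPES pH 7.4 buffer with MgCl2, then reacted 2 h at room temperature with 3 mM ATP and 500 uM diC8-PtdInsP. ADP measured by ADP-Glo Max luminescence; % inhibition fitted to 4-parameter logistic for IC50.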

PI3K β = molecular target: T2, PI3K β (Homo sapiens, UniProt P42338); experiment: PI3-Kinase Promega ADP-Glo Max assay; assay type: biochemical; conditions: 40 nM kinase, 3 mM ATP, 500 uM diC8-PtdInsP
T2 construct: purchased Millipore
In short: as §1

PI3K δ = molecular target: T3, PI3K δ (Homo sapiens, UniProt O00329); experiment: PI3-Kinase Promega ADP-Glo Max assay; assay type: biochemical; conditions: 20 nM kinase, 3 mM ATP, 500 uM diC8-PtdInsP
T3 construct: purchased Millipore
In short: as §1

RAJI p110 δ = RAJI p110 δ (Homo sapiens, UniProt O00329); experiment: RAJI p110 δ cellular assay (phospho-AKT);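 also: potency based on lowered phosphorylated AKT in RAJI cells, as a readout of PI3K-δ dependent B-cell receptor signaling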
Source text: (a) PI3K-δ Selective Assay
Reduction of phospho-AKT is indicative of compounds that may inhibit B-cell proliferation and function in certain diseases.

PI3K γ = molecular target: T4, PI3K γ (Homo sapiens, UniProt P48736); experiment: PI3-Kinase Promega ADP-Glo Max assay; assay type: biochemical; conditions: 40 nM kinase, 3 mM ATP, 500 uM diC8-PtdInsP
T4 construct: purchased Millipore
In short: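 Human class I PI3K reactions ran 2 hours at room temperature, followed by stop solution (40 min) and detection mix (1 hour) before luminescence reading.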

Raw264.7 p110 γ = molecular target: T5, Raw264.7 p110 γ (Mus musculus, UniProt Q9JHG7); experiment: Raw264.7 p110 γ cellular assay (phospho-AKT); assay type: cell-based; conditions: serum-starved RAW264.7 cells stimulated with C5a
T5 construct: reduction of phospho-AKT in stimulated RAW 264.7 cells; endogenous in cells; host or cells: RAW264.7 macrophages
Source text: (b) PI3K-γ Selective Assay
Briefly, serum-starved PAW264.7 cells are stimulated with a known GPCR agonist C5a. […] Cells can be treated with test compounds prior to, simultaneously with, or subsequent to the stimulation by C5a. RAW 264.7 cells respond to the complement component fragment C5a through activation of the C5a receptor, and the C5a receptor activates macrophages and induces cell migration.

lupus symptoms = conditions: B6.Sle1z.Sle3z model; cited from earlier work
[1] = PBS pH 7.4, 37° C., 24 hours, 5 μM; cited from earlier work
[2] = system: p190 transduced leukemic cells; conditions: about 70 mg/kg twice daily; cited from earlier work
[3] = reference compound, 5 μM; cited from earlier work

T5 sequence (Q9JHG7 whole entry): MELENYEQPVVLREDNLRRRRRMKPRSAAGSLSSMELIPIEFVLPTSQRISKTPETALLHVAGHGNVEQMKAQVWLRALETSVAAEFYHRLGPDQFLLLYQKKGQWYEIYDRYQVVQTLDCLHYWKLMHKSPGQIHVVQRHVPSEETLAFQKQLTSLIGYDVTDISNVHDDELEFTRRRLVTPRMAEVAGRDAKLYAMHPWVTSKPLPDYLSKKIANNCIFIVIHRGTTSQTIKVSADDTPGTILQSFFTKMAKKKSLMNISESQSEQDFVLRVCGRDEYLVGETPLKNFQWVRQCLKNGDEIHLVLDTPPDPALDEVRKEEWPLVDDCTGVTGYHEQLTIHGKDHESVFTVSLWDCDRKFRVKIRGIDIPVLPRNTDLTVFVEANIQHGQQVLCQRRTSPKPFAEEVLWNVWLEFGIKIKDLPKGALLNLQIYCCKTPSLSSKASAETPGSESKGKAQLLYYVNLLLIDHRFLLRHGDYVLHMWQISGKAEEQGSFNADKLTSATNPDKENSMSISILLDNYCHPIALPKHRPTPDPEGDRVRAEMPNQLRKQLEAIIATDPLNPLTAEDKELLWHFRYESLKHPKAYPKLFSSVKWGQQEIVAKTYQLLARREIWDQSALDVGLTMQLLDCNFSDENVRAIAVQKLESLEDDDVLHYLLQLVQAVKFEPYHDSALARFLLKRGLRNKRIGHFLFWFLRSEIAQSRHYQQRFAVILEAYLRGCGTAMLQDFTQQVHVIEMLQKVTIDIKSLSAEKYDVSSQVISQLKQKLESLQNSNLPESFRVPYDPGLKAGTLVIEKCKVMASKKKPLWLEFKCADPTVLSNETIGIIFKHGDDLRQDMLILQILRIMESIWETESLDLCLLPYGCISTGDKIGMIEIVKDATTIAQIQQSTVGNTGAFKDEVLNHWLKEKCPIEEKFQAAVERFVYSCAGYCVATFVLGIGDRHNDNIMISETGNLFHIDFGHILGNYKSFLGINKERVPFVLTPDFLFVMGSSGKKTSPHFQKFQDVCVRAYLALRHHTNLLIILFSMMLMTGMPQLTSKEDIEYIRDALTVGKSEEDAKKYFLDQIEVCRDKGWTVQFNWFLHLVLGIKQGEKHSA
T2 sequence (P42338 whole entry): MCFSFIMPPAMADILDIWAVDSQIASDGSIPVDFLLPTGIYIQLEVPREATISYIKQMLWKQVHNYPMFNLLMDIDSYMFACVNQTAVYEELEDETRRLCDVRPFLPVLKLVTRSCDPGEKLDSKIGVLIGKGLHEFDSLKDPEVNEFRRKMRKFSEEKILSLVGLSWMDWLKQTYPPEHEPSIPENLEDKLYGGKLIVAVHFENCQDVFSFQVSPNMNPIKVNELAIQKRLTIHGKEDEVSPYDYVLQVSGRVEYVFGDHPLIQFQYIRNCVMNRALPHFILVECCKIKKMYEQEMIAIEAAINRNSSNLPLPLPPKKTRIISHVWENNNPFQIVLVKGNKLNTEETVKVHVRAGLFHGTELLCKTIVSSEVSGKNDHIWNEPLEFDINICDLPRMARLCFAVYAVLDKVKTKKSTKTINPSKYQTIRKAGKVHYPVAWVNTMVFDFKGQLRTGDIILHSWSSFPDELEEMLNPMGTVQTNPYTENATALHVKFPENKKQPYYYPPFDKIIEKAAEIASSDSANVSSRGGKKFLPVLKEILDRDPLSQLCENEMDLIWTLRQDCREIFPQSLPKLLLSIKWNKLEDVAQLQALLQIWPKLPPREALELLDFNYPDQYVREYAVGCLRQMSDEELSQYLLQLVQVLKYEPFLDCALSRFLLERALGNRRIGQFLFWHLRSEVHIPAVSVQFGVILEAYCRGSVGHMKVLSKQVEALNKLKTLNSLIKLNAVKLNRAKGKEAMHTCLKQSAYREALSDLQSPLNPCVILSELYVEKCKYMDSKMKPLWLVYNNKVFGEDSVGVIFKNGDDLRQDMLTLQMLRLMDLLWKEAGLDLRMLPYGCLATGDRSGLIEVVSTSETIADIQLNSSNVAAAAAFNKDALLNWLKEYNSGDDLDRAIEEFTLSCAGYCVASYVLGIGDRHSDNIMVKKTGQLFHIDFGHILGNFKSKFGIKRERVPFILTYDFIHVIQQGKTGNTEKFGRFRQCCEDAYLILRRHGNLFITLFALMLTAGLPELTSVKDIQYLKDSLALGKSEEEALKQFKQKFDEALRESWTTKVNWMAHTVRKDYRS
T2 sequence (P27986 whole entry partner): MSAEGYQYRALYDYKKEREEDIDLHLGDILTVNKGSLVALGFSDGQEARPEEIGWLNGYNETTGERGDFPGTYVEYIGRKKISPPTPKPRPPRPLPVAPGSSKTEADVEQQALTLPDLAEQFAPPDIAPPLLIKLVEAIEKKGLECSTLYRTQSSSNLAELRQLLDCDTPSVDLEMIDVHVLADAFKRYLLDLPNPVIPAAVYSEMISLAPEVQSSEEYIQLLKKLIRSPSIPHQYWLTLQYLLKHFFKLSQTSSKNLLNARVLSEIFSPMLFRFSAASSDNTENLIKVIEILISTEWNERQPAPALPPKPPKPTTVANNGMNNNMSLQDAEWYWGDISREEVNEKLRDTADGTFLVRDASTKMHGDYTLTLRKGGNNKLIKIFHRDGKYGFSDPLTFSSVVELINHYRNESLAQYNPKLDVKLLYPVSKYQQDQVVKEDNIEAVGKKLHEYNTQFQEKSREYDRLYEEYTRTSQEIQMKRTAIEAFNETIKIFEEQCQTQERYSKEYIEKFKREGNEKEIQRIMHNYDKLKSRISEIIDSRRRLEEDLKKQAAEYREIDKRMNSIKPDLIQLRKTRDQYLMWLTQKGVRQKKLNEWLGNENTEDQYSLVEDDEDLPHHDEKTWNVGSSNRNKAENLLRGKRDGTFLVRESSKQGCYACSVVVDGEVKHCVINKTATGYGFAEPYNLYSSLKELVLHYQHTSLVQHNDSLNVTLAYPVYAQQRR
T1 sequence (P42336 whole entry): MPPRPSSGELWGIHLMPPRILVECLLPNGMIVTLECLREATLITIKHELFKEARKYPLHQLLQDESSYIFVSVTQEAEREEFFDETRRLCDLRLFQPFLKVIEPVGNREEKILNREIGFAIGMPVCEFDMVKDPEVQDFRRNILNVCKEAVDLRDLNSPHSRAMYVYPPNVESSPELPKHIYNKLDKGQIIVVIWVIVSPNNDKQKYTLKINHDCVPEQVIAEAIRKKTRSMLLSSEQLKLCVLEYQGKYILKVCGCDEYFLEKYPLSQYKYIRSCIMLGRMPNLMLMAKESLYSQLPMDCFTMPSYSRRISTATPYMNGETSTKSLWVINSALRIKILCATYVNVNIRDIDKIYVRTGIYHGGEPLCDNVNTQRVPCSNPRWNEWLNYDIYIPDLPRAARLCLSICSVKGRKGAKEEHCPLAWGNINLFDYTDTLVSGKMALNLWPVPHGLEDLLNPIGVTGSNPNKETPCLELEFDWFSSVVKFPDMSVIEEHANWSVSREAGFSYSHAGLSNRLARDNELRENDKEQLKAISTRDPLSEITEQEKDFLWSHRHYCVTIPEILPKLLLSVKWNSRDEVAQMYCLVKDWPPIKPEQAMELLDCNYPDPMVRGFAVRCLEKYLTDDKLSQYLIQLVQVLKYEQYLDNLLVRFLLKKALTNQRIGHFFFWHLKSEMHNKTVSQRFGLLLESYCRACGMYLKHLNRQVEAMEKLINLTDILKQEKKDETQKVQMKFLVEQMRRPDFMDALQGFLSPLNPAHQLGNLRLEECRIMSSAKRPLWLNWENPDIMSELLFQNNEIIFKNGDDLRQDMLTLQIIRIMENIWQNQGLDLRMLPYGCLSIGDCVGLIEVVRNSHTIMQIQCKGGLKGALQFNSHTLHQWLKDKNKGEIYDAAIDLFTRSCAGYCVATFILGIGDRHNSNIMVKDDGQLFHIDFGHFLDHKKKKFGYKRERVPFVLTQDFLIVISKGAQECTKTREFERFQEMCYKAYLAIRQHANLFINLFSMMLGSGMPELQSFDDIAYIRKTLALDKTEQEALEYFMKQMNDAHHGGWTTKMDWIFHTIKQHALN
T1 sequence (P27986 whole entry partner): as the sequence (P27986 whole entry partner) above
T4 sequence (P48736 whole entry): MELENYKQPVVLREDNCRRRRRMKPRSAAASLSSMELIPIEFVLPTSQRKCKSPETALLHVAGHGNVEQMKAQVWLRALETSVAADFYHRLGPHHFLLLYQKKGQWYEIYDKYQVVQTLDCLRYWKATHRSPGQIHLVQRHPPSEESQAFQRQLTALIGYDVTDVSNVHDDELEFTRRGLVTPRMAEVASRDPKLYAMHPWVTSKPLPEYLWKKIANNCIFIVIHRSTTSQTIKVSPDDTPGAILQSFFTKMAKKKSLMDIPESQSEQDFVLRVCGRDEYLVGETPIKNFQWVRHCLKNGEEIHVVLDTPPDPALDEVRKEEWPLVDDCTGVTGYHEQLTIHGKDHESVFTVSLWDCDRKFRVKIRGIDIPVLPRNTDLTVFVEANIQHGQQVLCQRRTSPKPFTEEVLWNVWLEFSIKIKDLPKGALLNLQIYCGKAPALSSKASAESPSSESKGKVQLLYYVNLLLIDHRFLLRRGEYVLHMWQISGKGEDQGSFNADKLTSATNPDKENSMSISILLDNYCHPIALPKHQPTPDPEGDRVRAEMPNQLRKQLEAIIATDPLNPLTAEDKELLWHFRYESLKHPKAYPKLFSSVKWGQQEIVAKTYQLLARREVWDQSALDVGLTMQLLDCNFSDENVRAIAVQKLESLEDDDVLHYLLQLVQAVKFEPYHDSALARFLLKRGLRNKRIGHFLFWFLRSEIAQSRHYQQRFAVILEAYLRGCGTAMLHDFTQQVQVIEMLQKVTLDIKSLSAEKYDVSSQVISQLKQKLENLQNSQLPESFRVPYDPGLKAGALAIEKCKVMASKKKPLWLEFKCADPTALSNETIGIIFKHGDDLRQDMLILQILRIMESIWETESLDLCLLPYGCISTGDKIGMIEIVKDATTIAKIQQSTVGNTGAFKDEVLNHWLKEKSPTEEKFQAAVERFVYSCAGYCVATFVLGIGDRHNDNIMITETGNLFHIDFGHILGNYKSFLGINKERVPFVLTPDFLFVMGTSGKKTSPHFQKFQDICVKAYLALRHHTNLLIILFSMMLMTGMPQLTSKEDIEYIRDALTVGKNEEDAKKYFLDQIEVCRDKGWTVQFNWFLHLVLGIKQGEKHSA

Compound | blocking disease (NZB/W F1 mice) | IC50 (PI3K α) | IC50 (PI3K β) | IC50 (PI3K δ) | IC50 (RAJI p110 δ) | IC50 (PI3K γ) | IC50 (Raw264.7 p110 γ) | lupus symptoms (lupus symptoms) | chemical stability [1] | leukemogenesis [2] | plasma stability [3]
CC(C)C[C@H](NC(=O)[C@H](Cc1ccccc1)NC(=O)c1cnccn1)B(O)O [Bortezimib] | effective at blocking disease | – | – | – | – | – | – | – | – | – | –
C=CCn1c([C@H](C)NC(=O)c2c(N)nn3cccnc23)cc2cccc(Cl)c2c1=O [Compound 235] | – | 1000 to 10000 nM | < 100 nM | 100 to 1000 nM | < 100 nM | 100 to 1000 nM | < 100 nM | – | – | – | –
C[C@H](NC(=O)c1c(N)nn2cccnc12)c1cc2cccc(Cl)c2c(=O)n1CC(O)CO (stereo partly drawn) [Compound 238] | – | 1000 to 10000 nM | < 100 nM | 100 to 1000 nM | < 100 nM | 100 to 1000 nM | < 100 nM | – | – | – | –
C[C@H](NC(=O)c1c(N)nn2cccnc12)c1cc2cccc(Cl)c2c(=O)n1CCN(C)C [Compound 242] | – | > 10000 nM | < 100 nM | < 100 nM | < 100 nM | 1000 to 10000 nM | 100 to 1000 nM | – | – | – | –
C[C@H](NC(=O)c1c(N)nn2cccnc12)c1cc2cccc(-c3cncs3)c2c(=O)n1-c1ccccc1 [Compound 245] | – | 1000 to 10000 nM | > 10000 nM | 1000 to 10000 nM | < 100 nM | 100 to 1000 nM | < 100 nM | – | – | – | –
CC[C@H](NC(=O)c1c(N)nn2cccnc12)c1cc2cccc(Cl)c2c(=O)n1-c1ccccc1 [Compound 250] | – | 1000 to 10000 nM | < 100 nM | < 100 nM | < 100 nM | 100 to 1000 nM | < 100 nM | – | – | – | –
C[C@H](NC(=O)c1c(N)nn2cccnc12)c1c(Br)c2cccc(Cl)c2c(=O)n1-c1ccccc1 [Compound 254] | – | 1000 to 10000 nM | 1000 to 10000 nM | 100 to 1000 nM | < 100 nM | < 100 nM | < 100 nM | – | – | – | –
Cc1c([C@H](C)NC(=O)c2c(N)nn3cccnc23)n(-c2ccccc2)c(=O)c2c(F)cccc12 [Compound 260] | – | 1000 to 10000 nM | 100 to 1000 nM | 100 to 1000 nM | < 100 nM | < 100 nM | < 100 nM | – | – | – | –
CNc1cccc2cc([C@H](C)NC(=O)c3c(N)nn4cccnc34)n(-c3ccccc3)c(=O)c12 [Compound 266] | – | 1000 to 10000 nM | > 10000 nM | > 10000 nM | 100 to 1000 nM | 1000 to 10000 nM | < 100 nM | – | – | – | –
C[C@H](NC(=O)c1c(N)nn2cccnc12)c1cc2cccc(NCC(F)(F)F)c2c(=O)n1-c1ccccc1 [Compound 267] | – | > 10000 nM | > 10000 nM | > 10000 nM | 100 to 1000 nM | 1000 to 10000 nM | 100 to 1000 nM | – | – | – | –
C[C@H](NC(=O)c1c(N)nn2cccnc12)c1c(C#N)c2cccc(F)c2c(=O)n1-c1ccccc1 [Compound 269] | – | 1000 to 10000 nM | 100 to 1000 nM | 100 to 1000 nM | < 100 nM | 100 to 1000 nM | < 100 nM | – | – | – | –
COc1cccc2cc([C@H](C)NC(=O)c3c(N)nn4cccnc34)n(-c3ccccc3)c(=O)c12 [Compound 270] | – | > 10000 nM | > 10000 nM | 1000 to 10000 nM | 100 to 1000 nM | 1000 to 10000 nM | 100 to 1000 nM | – | – | – | –
C[C@H](NC(=O)c1c(N)nn2cccnc12)c1cc2cccc(-c3cccs3)c2c(=O)n1-c1ccccc1 [Compound 271] | – | 1000 to 10000 nM | 1000 to 10000 nM | 1000 to 10000 nM | 100 to 1000 nM | 100 to 1000 nM | < 100 nM | – | – | – | –
C[C@H](NC(=O)c1c(N)nn2cccnc12)c1cc2cccc(Cl)c2c(=O)n1CCN(C)S(C)(=O)=O [Compound 273] | – | 100 to 1000 nM | 100 to 1000 nM | 100 to 1000 nM | < 100 nM | < 100 nM | < 100 nM | – | – | – | –
C#Cc1cccc2cc([C@H](C)NC(=O)c3c(N)nn4cccnc34)n(-c3ccccc3)c(=O)c12 [Compound 276] | – | 100 to 1000 nM | 100 to 1000 nM | 100 to 1000 nM | < 100 nM | < 100 nM | < 100 nM | – | – | – | –
CO[C@H]1C[C@@H]2CC[C@@H](C)[C@@](O)(O2)C(=O)C(=O)N2CCCC[C@H]2C(=O)O[C@H]([C@H](C)C[C@@H]2CC[C@@H](OCCO)[C@H](OC)C2)CC(=O)[C@H](C)/C=C(\C)[C@@H](O)[C@@H](OC)C(=O)[C@H](C)C[C@H](C)/C=C/C=C/C=C/1C [RAD001, everolimus] | – | – | – | – | – | – | – | ameliorate lupus symptoms | – | – | –
O=C(O)CCCc1ccc(N(CCCl)CCCl)cc1 [chlorambucil] | – | – | – | – | – | – | – | – | largely hydrolyzed over the course of 24 hours | – | –
Cc1ccc(NC(=O)c2ccc(CN3CCN(C)CC3)cc2)cc1Nc1nccc(-c2cccnc2)n1 [imatinib] | – | – | – | – | – | – | – | – | – | delay but not cure leukemogenesis | –
CC(C)[N+](C)(CCOC(=O)C1c2ccccc2Oc2ccccc21)C(C)C [propantheline] | – | – | – | – | – | – | – | – | – | – | intermediate plasma stability
CCCOc1cc(N)ccc1C(=O)OCCN(CC)CC [propoxycaine] | – | – | – | – | – | – | – | – | – | – | low plasma stability
